Read-outs that look alike come from different tables or passages of the source.
Target: T1, STAT3 (Homo sapiens, UniProt P40763)
T1 construct: expressed in transfected cells; host or cells: A549
Assay: STAT3 HiBiT degradation assay (Nano-Glo HiBiT lytic detection) in transfected A549 cells
Format: cell-based
In short: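 Transfected A549 cells (~2000/well) treated 24 h at 37° C with compound in 3-fold, 10-point dilution series. HiBiT-tagged STAT3 remaining measured by Nano-Glo HiBiT lytic luminescence, normalised to negative and positive controls; DC50 from four-parameter curve fit.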

[1] = 24 h compound incubation, read-out: STAT3 HiBIT A549 degradation 24 h: Average external-Abs DC50

T1 sequence (P40763 whole entry): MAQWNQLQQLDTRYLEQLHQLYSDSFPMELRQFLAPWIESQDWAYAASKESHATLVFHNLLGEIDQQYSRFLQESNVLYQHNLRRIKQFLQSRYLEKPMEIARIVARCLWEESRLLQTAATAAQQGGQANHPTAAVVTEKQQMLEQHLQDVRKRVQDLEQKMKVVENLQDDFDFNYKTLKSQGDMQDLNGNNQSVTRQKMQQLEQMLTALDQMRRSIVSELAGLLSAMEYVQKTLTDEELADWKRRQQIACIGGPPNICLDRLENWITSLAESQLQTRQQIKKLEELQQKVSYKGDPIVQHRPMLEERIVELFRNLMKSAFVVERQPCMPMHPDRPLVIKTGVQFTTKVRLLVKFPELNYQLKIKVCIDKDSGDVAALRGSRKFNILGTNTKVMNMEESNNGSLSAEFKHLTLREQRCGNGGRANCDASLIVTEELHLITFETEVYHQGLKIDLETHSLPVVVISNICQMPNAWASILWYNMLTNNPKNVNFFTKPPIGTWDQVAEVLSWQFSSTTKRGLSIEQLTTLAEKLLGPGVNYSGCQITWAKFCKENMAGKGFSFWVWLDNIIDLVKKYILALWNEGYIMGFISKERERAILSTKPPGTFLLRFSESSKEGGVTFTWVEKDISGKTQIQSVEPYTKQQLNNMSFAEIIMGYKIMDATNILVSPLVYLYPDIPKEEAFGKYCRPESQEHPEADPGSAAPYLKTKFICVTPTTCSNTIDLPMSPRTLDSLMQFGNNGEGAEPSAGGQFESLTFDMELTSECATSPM

SMILES	DC50 [1]	DC50 (read-out: STAT3 HiBIT A549 degradation 24 h: Average external-Abs DC50, 24 h compound incubation)
CC(=O)N1CC[C@H]2CC[C@@H](C(=O)N[C@@H](CCC(N)=O)COc3cc(C)cc(CCCC(=O)N[C@H](C(=O)N4C[C@H](O)C[C@H]4C(=O)N[C@@H](C)c4ccc(-c5scnc5C)cc4)C(C)(C)C)c3Cl)N2C(=O)[C@@H](NC(=O)c2cc3cc(C(=O)P(=O)(O)O)ccc3[nH]2)C1 [I-80]	< 10 nM	
CN1C(=O)CCC(n2c(=O)n(C)c3cc(C[C@H]4CC[C@@H](CC(=O)N5CC[C@H]6CC[C@@H](C(=O)N[C@@H](CCC(N)=O)C(=O)NC(c7ccccc7)c7ccccc7)N6C(=O)[C@@H](NC(=O)c6cc7cc(C(=O)P(=O)(O)O)ccc7[nH]6)C5)CC4)ccc32)C1=O (stereo partly drawn) [I-64]	> 1000 nM	
Cn1c(=O)n(C2CCC(=O)NC2=O)c2ccc(NCCCCCc3cc4c5c(c3)C[C@@H](C(=O)N[C@@H](CCC(N)=O)C(=O)NCc3ccc(S(C)(=O)=O)cc3)N5C(=O)[C@@H](NC(=O)c3cc5cc(C(=O)P(=O)(O)O)ccc5[nH]3)CC4)cc21 (stereo partly drawn) [I-57, 2-[[(2S,11S)-2-[[(1S)-3-carbamoyl-1-[[(4-methanesulfonylphenyl)methyl]carbamoyl]propyl]carbamoyl]-6-(5-[[1-(2,6-dioxopiperidin-3-yl)-3-methyl-2-oxo-1,3-benzodiazol-5-yl]amino]pentyl)-12-oxo-1-azatricyclo[6.4.1.0^[4,13]]trideca-4(13),5,7-trien-11-yl]carbamoyl]-1H-indole-5-carbonylphosphonic acid]	10 to 100 nM	
Cn1c(=O)n(C2CCC(=O)NC2=O)c2ccc(C[C@H]3CC[C@@H](CC(=O)N4CC[C@H]5CC[C@@H](C(=O)NC6(CCC(N)=O)CCCC6)N5C(=O)[C@@H](NC(=O)c5cc6cc(C(=O)P(=O)(O)O)ccc6[nH]5)C4)CC3)cc21 (stereo partly drawn) [I-29]	> 1000 nM	
Cc1ncsc1-c1ccc([C@H](C)NC(=O)[C@@H]2C[C@@H](O)CN2C(=O)[C@@H](NC(=O)CC2CCC(c3cccc(OC[C@H](CCC(N)=O)NC(=O)[C@@H]4Cc5cccc6c5N4C(=O)[C@@H](NC(=O)c4cc5cc(C(=O)P(=O)(O)O)ccc5[nH]4)CC6)c3Cl)CC2)C(C)(C)C)cc1 (stereo partly drawn) [I-56]	100 to 1000 nM	
Cc1ncsc1-c1ccc([C@H](C)NC(=O)[C@@H]2C[C@@H](O)CN2C(=O)[C@@H](NC(=O)CCCc2cccc(OC[C@H](CCC(N)=O)NC(=O)[C@@H]3CCCN3C(=O)[C@@H](NC(=O)c3cc4cc(C(=O)P(=O)(O)O)ccc4[nH]3)C(C)C)c2Cl)C(C)(C)C)cc1 [I-15, 2-[[(2S)-1-[(2S)-2-[[(2S)-4-carbamoyl-1-[2-chloro-3-(3-[[(2S)-1-[(2S,4R)-4-hydroxy-2-[[(1S)-1-[4-(4-methyl-1,3-thiazol-5-yl)phenyl]ethyl]carbamoyl]pyrrolidin-1-yl]-3,3-dimethyl-1-oxobutan-2-yl]carbamoyl]propyl)phenoxy]butan-2-yl]carbamoyl]pyrrolidin-1-yl]-3-methyl-1-oxobutan-2-yl]carbamoyl]-1H-indole-5-carbonylphosphonic acid]	10 to 100 nM	
Cc1ncsc1-c1ccc([C@H](C)NC(=O)[C@@H]2C[C@@H](O)CN2C(=O)[C@@H](NC(=O)CCCCCc2cccc(OC[C@H](CCC(N)=O)NC(=O)[C@@H]3CC[C@@H]4CCCC[C@H](NC(=O)c5cc6cc(C(=O)P(=O)(O)O)ccc6[nH]5)C(=O)N43)c2F)C(C)(C)C)cc1 [I-6]	10 to 100 nM	
C[C@@H](NC(=O)[C@H](CCC(N)=O)NC(=O)[C@@H]1CC[C@@H]2CCN(C(=O)C[C@H]3CC[C@@H](Cc4ccc5c(c4)n(C)c(=O)n5C4CCC(=O)NC4=O)CC3)C[C@H](NC(=O)c3cc4cc(C(=O)P(=O)(O)O)ccc4[nH]3)C(=O)N21)c1ccc(S(C)(=O)=O)cc1 (stereo partly drawn) [I-40]	100 to 1000 nM	
CC(=O)N1CC[C@H]2CC[C@@H](C(=O)N[C@@H](CCC(N)=O)COc3cccc(CCCCC(=O)N[C@H](C(=O)N4C[C@@H](O)C[C@H]4C(=O)N[C@@H](C)c4ccc(-c5scnc5C)cc4)C(C)(C)C)c3Cl)N2C(=O)[C@@H](NC(=O)c2cc3cc(C(=O)P(=O)(O)O)ccc3[nH]2)C1 [I-43]	> 1000 nM	
COC(=O)N1CC[C@H]2CC[C@@H](C(=O)N[C@@H](CCC(N)=O)COc3cccc(CCCC(=O)N[C@H](C(=O)N4C[C@H](O)C[C@H]4C(=O)N[C@@H](C)c4ccc(-c5scnc5C)cc4)C(C)(C)C)c3Cl)N2C(=O)[C@@H](NC(=O)c2cc3cc(C(=O)P(=O)(O)O)ccc3s2)C1 [I-86]		> 1000 nM
CCS(=O)(=O)c1ccc(CNC(=O)[C@H](CCC(N)=O)NC(=O)[C@@H]2CC[C@@H]3CCN(C(=O)C[C@H]4CC[C@@H](Cc5ccc6c(c5)n(C)c(=O)n6C5CCC(=O)NC5=O)CC4)C[C@H](NC(=O)c4cc5cc(C(=O)P(=O)(O)O)ccc5[nH]4)C(=O)N32)cc1 (stereo partly drawn) [I-62]	10 to 100 nM	
Cn1c(=O)n(C2CCC(=O)NC2=O)c2ccc(C[C@H]3CC[C@@H](CC(=O)N4CC[C@H]5CC[C@@H](C(=O)NC(C)(C)CCC(N)=O)N5C(=O)[C@@H](NC(=O)c5cc6cc(C(=O)P(=O)(O)O)ccc6[nH]5)C4)CC3)cc21 (stereo partly drawn) [I-26]	> 1000 nM	

Reference: patent US20240016942A1, “STAT DEGRADERS AND USES THEREOF” (Kymera Therapeutics, Inc., priority 2020, published 2024)
